This passage reports K1/2 results from PMC9410914 (2022).

This experiment concerns WT R-mRNA+30 (I-2S8) (RNA, riboswitch) GGGCAGUGAGCAACAAAAUGCUCACCUGGGUCGCAGUAACCCCAGUUAACAAAACAAGGGAGGUAAUUUUGUGCCCAAAAAAAGAAUAAAAGAUUUAGCU
Briefly: single-molecule TIRF (SiM-KARB), 30S binding/dissociation rates vs preQ1, global Hill fit. To be noted: K+ 100 mM, Mg2+ 5 mM, NH4+ 5 mM, Ca2+ 0.5 mM; apparent; Tris-polymix pH 7.5, spermidine, putrescine; 20 nM Cy5-30S ribosomal subunits present; indirect readout.

As to `NCc1c[nH]c2nc(N)[nH]c(=O)c12`, the K1/2 was ~ 48 nM.
